# Experimental data from patent US20230295156A1, “CRYSTALLINE FORMS OF 4-[(7-CHLORO-2-METHOXYBENZO[B][1,5]NAPHTHYRIDIN-10-YL)AMINO]-2,6-BIS(PYRROLIDIN-1-YLMETHYL)PHENOL AND SALTS THEREOF” (Merck Patent GmbH, priority 2020, published 2023).
# “Also recorded” adds a separate entry of the source.
# Legend:
# [1] = Miniaturized non-sink dissolution in FaSSIF pH 6.5; format: physicochemical; conditions: for Dissolution levels in FaSSIF pH 6.5: 37° C.; for Dissolution level in FaSSIF: FaSSIF pH 6.5, 37° C.
# Description: Approx. 10-20 mg of solid sample were weighed into glass vials. 7 ml of respective FaSSIF (pH 6.5) medium (prewarmed to 37° C.) were added and the suspension was shaken at 450 rpm at 37° C. After 5 min, 15 min, 60 min, and 120 min, 1 ml suspension was withdrawn and filtered through a 0.2 µm syringe filter. Clear filtrate was analysed by HPLC after suitable dilution to measure the amount of API dissolved. To get non-sink conditions 1 ml pre warmed FaSSiF solution was added after sample was withdrawn.
# The clear solution was collected in HPLC vials, the filtrate further diluted if necessary and finally HPLC analysis was carried out.
# HPLC method for ph-dependent solubility & miniaturised non-sink dissolution: • Column: Chromolith RP-18e 100 - 3 mm • Solvent A: water/formic acid (999:1; v/v) • Solvent B: acetonitrile/formic acid (999:1; v/v) • Injection volume: 5 µL • Column temperature: 37° C. • Wavelength detector: 218 nm
# [2] = Water Vapour Sorption isotherm (DVS), hygroscopicity acc. to Ph. Eur.; format: physicochemical; conditions: for Hygroscopicity classification acc. to Ph. Eur. criteria (section 5.11.): based on water uptake difference 40-80% rh; for Water uptake level (Water Vapour Sorption): isotherm 25° C.
# Description: As used herein, unless stated otherwise, Water Vapour Sorption isotherm measurements are carried out on a DVS-1 or a DVS-Intrinsic system from SMS.
# [3] = relative humidity range 40-80% rh
Compound,Dissolution level in FaSSIF ([1]; after 15 min),Dissolution level in FaSSIF ([1]; after 60 min),Dissolution level in FaSSIF ([1]; after 120 min),Hygroscopicity classification acc. to Ph. Eur. criteria (section 5.11.) [2],"Water uptake level (Water Vapour Sorption) [2, 3] [wt%]",Tendency to undergo hydrate formation upon exposure to elevated RH levels ([2]; up to 90% RH),further results
"COc1ccc2nc3cc(Cl)ccc3c(Nc3cc(CN4CCCC4)c(O)c(CN4CCCC4)c3)c2n1 [Form I, 4-[(7-chloro-2-methoxybenzo[b][1,5]naphthyridin-10-yl)amino]-2,6-bis(pyrrolidin-1-ylmethyl)phenol]",approx. 0.56 mg/mL,approx. 0.55 mg/mL,approx. 0.54 mg/mL,hygroscopic,2.4,,"Dissolution levels in FaSSIF pH 6.5 ([1]; 5 min, listed as Tosylate salt Form I): 547.9 µg/mL; Dissolution levels in FaSSIF pH 6.5 ([1]; 15 min, listed as Tosylate salt Form I): 557.9 µg/mL; Dissolution levels in FaSSIF pH 6.5 ([1]; 60 min, listed as Tosylate salt Form I): 552.8 µg/mL; Dissolution levels in FaSSIF pH 6.5 ([1]; 120 min, listed as Tosylate salt Form I): 537.7 µg/mL"
"COc1ccc2nc3cc(Cl)ccc3c(Nc3cc(CN4CCCC4)c(O)c(CN4CCCC4)c3)c2n1 [Form II, 4-[(7-chloro-2-methoxybenzo[b][1,5]naphthyridin-10-yl)amino]-2,6-bis(pyrrolidin-1-ylmethyl)phenol]",approx. 0.45 mg/mL,approx. 0.44 mg/mL,approx. 0.44 mg/mL,slightly hygroscopic,,,"Dissolution levels in FaSSIF pH 6.5 ([1]; 5 min, listed as Besylate salt Form II): 432.8 µg/mL; Dissolution levels in FaSSIF pH 6.5 ([1]; 15 min, listed as Besylate salt Form II): 447.0 µg/mL; Dissolution levels in FaSSIF pH 6.5 ([1]; 60 min, listed as Besylate salt Form II): 440.1 µg/mL; Dissolution levels in FaSSIF pH 6.5 ([1]; 120 min, listed as Besylate salt Form II): 444.5 µg/mL; Water uptake level (Water Vapour Sorption) ([2]; relative humidity range 40-90% rh): 1.4 wt%"
"COc1ccc2nc3cc(Cl)ccc3c(Nc3cc(CN4CCCC4)c(O)c(CN4CCCC4)c3)c2n1 [Form III, 4-[(7-chloro-2-methoxybenzo[b][1,5]naphthyridin-10-yl)amino]-2,6-bis(pyrrolidin-1-ylmethyl)phenol]",approx. 0.46 mg/mL,approx. 0.48 mg/mL,approx. 0.47 mg/mL,slightly hygroscopic,1.5,no tendency to undergo hydrate formation,"Dissolution levels in FaSSIF pH 6.5 ([1]; 5 min, listed as Edisylate salt Form III): 406.7 µg/mL; Dissolution levels in FaSSIF pH 6.5 ([1]; 15 min, listed as Edisylate salt Form III): 462.7 µg/mL; Dissolution levels in FaSSIF pH 6.5 ([1]; 60 min, listed as Edisylate salt Form III): 483.3 µg/mL; Dissolution levels in FaSSIF pH 6.5 ([1]; 120 min, listed as Edisylate salt Form III): 469.7 µg/mL"
"COc1ccc2nc3cc(Cl)ccc3c(Nc3cc(CN4CCCC4)c(O)c(CN4CCCC4)c3)c2n1 [Form IV, 4-[(7-chloro-2-methoxybenzo[b][1,5]naphthyridin-10-yl)amino]-2,6-bis(pyrrolidin-1-ylmethyl)phenol]",approx. 0.17 mg/mL,approx. 0.56 mg/mL,approx. 0.82 mg/mL,slightly hygroscopic,0.6,no tendency to undergo hydrate formation,"Dissolution levels in FaSSIF pH 6.5 ([1]; 5 min, listed as Napsylate salt Form IV): 116.6 µg/mL; Dissolution levels in FaSSIF pH 6.5 ([1]; 15 min, listed as Napsylate salt Form IV): 209.0 µg/mL; Dissolution levels in FaSSIF pH 6.5 ([1]; 60 min, listed as Napsylate salt Form IV): 488.8 µg/mL; Dissolution levels in FaSSIF pH 6.5 ([1]; 120 min, listed as Napsylate salt Form IV): 630.0 µg/mL"
"COc1ccc2nc3cc(Cl)ccc3c(Nc3cc(CN4CCCC4)c(O)c(CN4CCCC4)c3)c2n1 [Form V, 4-[(7-chloro-2-methoxybenzo[b][1,5]naphthyridin-10-yl)amino]-2,6-bis(pyrrolidin-1-ylmethyl)phenol]",approx. 0.17 mg/mL,approx. 0.56 mg/mL,approx. 0.82 mg/mL,slightly hygroscopic; also recorded: non-hygroscopic,0.6,no tendency to undergo hydrate formation,"Dissolution levels in FaSSIF pH 6.5 ([1]; 5 min, listed as Napsylate salt Form V): 95.2 µg/mL; Dissolution levels in FaSSIF pH 6.5 ([1]; 15 min, listed as Napsylate salt Form V): 171.1 µg/mL; Dissolution levels in FaSSIF pH 6.5 ([1]; 60 min, listed as Napsylate salt Form V): 564.1 µg/mL; Dissolution levels in FaSSIF pH 6.5 ([1]; 120 min, listed as Napsylate salt Form V): 817.6 µg/mL"
"COc1ccc2nc3cc(Cl)ccc3c(Nc3cc(CN4CCCC4)c(O)c(CN4CCCC4)c3)c2n1 [Form VI, 4-[(7-chloro-2-methoxybenzo[b][1,5]naphthyridin-10-yl)amino]-2,6-bis(pyrrolidin-1-ylmethyl)phenol]",,,,non-hygroscopic,< 0.1,,Tendency to undergo hydrate formation upon exposure to elevated RH levels ([2]; up to 98% RH): no tendency to undergo hydrate formation
"COc1ccc2nc3cc(Cl)ccc3c(Nc3cc(CN4CCCC4)c(O)c(CN4CCCC4)c3)c2n1 [Form VII, 4-[(7-chloro-2-methoxybenzo[b][1,5]naphthyridin-10-yl)amino]-2,6-bis(pyrrolidin-1-ylmethyl)phenol]",,,,non-hygroscopic; also recorded: slightly hygroscopic,< 0.1,,Tendency to undergo hydrate formation upon exposure to elevated RH levels ([2]; up to 98% RH): no tendency to undergo hydrate formation
"COc1ccc2nc3cc(Cl)ccc3c(Nc3cc(CN4CCCC4)c(O)c(CN4CCCC4)c3)c2n1 [Tetraphosphate form, 4-[(7-chloro-2-methoxybenzo[b][1,5]naphthyridin-10-yl)amino]-2,6-bis(pyrrolidin-1-ylmethyl)phenol tetraphosphate, reference compound]",approx. 0.50 mg/mL,approx. 0.50 mg/mL,approx. 0.49 mg/mL,hygroscopic,> 4.9,,"Dissolution levels in FaSSIF pH 6.5 ([1]; 5 min, listed as Pyronaridine (tetraphosphate salt, prior art form)): 501.4 µg/mL; Dissolution levels in FaSSIF pH 6.5 ([1]; 15 min, listed as Pyronaridine (tetraphosphate salt, prior art form)): 501.9 µg/mL; Dissolution levels in FaSSIF pH 6.5 ([1]; 60 min, listed as Pyronaridine (tetraphosphate salt, prior art form)): 501.3 µg/mL; Dissolution levels in FaSSIF pH 6.5 ([1]; 120 min, listed as Pyronaridine (tetraphosphate salt, prior art form)): 491.3 µg/mL; Hygroscopicity classification acc. to Ph. Eur. criteria (section 5.11.) ([2]; listed as pyronaridine): hygroscopic"
